Test results taken from patent US4053466A, “(E)-2-[p-(β-substituted-vinyl)phenyl]alkanoic acids” (Kohjin Co., Ltd., priority 1974, dated 1977).

Columns and labels:
[1] = system: rabbit platelet-rich plasma; assay: inhibition of collagen-induced platelet aggregation; type: cell-based; details: 10^-4 M, 0.02N NaOH, 3 minute incubation
Procedure: The activity was evaluated after a 3 minute incubation of a mixture of the platelet aggregation inhibitor and rabbit platelet-rich plasma. […] Accordingly,the relative potency of inhibition of the test compound to aspirin (RASP) at the same concentration was chosen as a direct measure of inhibition potency.

[2] = system: phenylquinone-induced writhing; assay: analgesic activity, Phenylquinone-Writhing Syndrome method; type: in vivo, mouse (ddN strain); details: for number of positive mice: fewer writhings than half of control; for ED50: Mus musculus, po, phenylquinone writhing, positive = fewer writhings than half of control
Procedure: Analgesic activity was determined according to the Phenylquinone-Writhing Syndrome method. ddN strain mice, each weighing about 18 to 22 g were used. Chemical pain was induced by an intraperitoneal injection of 0.1 ml/10 g body weight of 0.03% phenylquinone in 5% aqueous ethanol into the mice. The number of writhings was measured for 15 minutes from 5 minutes after challenge of phenylquinone. Each dose of the drug was given 30 minutes before challenge of phenylquinone.
Ed50 -value was calculated from the number of positive animals showing fewer writhings than half of the matched control group.

[3] = system: carrageenin-induced hind paw edema; assay: anti-inflammatory activity, carrageenin-induced hind paw edema; type: in vivo, rat (male Wistar); details: for number of positive rats: inhibition of 25% or more vs control at 3 hours; for ED50: Rattus norvegicus, po, carrageenin edema, positive = inhibition of 25% or more at 3 hours
Procedure: The anti-inflammatory activity of the compounds against carrageenin-inducededema was determined according to procedure described in C. A. Winter et al., Proc. Soc. Exp. Biol. Med., 111, 544 (1962). Male Wistar rats, each weighing 100 to 120 g were used. Hind paw edema was induced by sub-cutaneous injection of 0.1 ml of 1% carrageenin solution into the left foot pad of each rat. Hind paw volume was measured before and after challenge of carrageenin by immersion of the hind paw down to the lateral malleolus into a glass cylinder containing water. Each dose of the test compound was orally administered one hour before challenge of carrageenin.
ED50 -value was calculated from the number of positive animals showing an inhibitory activity of 25% or more than the matched control group at 3 hours after carrageenin challenge.

[4] = Farmaco. Edizione Scientifica, 11, 167 (1956); cited from earlier work

CC(C(=O)O)c1ccc(/C=C/c2cccs2)cc1 (stereo not drawn) [XG-28, (E)-2-[p-(β-2-Thienylvinyl)phenyl]propionic Acid]
RASP (relative potency of inhibition of the test compound to aspirin) [1]: 1.6 | Inhibition in (%) of writhing ([2]; 0.5 mg/kg p.o.): 13.5% | Number of Writhings/15 min., Mean ± S.E. ([2]; 0.5 mg/kg p.o.): 16.8 ± 2.1 | number of positive mice ([2]; 0.5 mg/kg p.o.): 1 | Inhibition in (%) of writhing ([2]; 5 mg/kg p.o.): 25.8% | Number of Writhings/15 min., Mean ± S.E. ([2]; 5 mg/kg p.o.): 14.4 ± 6.0 | number of positive mice ([2]; 5 mg/kg p.o.): 2 | Inhibition in (%) of writhing ([2]; 10 mg/kg p.o.): 29.4% | Number of Writhings/15 min., Mean ± S.E. ([2]; 10 mg/kg p.o.): 13.7 ± 2.4 | number of positive mice ([2]; 10 mg/kg p.o.): 2 | Inhibition in (%) of writhing ([2]; 25 mg/kg p.o.): 71.1% | Number of Writhings/15 min., Mean ± S.E. ([2]; 25 mg/kg p.o.): 5.6 ± 1.8 | number of positive mice ([2]; 25 mg/kg p.o.): 7 | Inhibition in (%) of writhing ([2]; 50 mg/kg p.o.): 52.1% | Number of Writhings/15 min., Mean ± S.E. ([2]; 50 mg/kg p.o.): 9.3 ± 1.6 | number of positive mice ([2]; 50 mg/kg p.o.): 4 | Inhibition in (%) of writhing ([2]; 100 mg/kg p.o.): 63.9% | Number of Writhings/15 min., Mean ± S.E. ([2]; 100 mg/kg p.o.): 7.0 ± 2.0 | number of positive mice ([2]; 100 mg/kg p.o.): 9 | Inhibition in (%) of writhing ([2]; 200 mg/kg p.o.): 60.3% | Number of Writhings/15 min., Mean ± S.E. ([2]; 200 mg/kg p.o.): 7.7 ± 1.2 | number of positive mice ([2]; 200 mg/kg p.o.): 5 | ED50 [2]: 14.1 mg/kg | Hind Paw Swelling, Mean ± S.E. ([3]; 1 mg/kg p.o., 2 hours): 73.7 ± 3.7% | Percent Inhibition of hind paw swelling ([3]; 1 mg/kg p.o., 2 hours): 2.4% | Hind Paw Swelling, Mean ± S.E. ([3]; 1 mg/kg p.o., 3 hours): 73.9 ± 2.6% | Percent Inhibition of hind paw swelling ([3]; 1 mg/kg p.o., 3 hours): -1.0% | number of positive rats ([3]; 1 mg/kg p.o.): 0 | Hind Paw Swelling, Mean ± S.E. ([3]; 2.5 mg/kg p.o., 2 hours): 67.0 ± 2.6% | Percent Inhibition of hind paw swelling ([3]; 2.5 mg/kg p.o., 2 hours): 11.3% | Hind Paw Swelling, Mean ± S.E. ([3]; 2.5 mg/kg p.o., 3 hours): 70.12 ± 2.1% | Percent Inhibition of hind paw swelling ([3]; 2.5 mg/kg p.o., 3 hours): 4.0% | number of positive rats ([3]; 2.5 mg/kg p.o.): 0 | Hind Paw Swelling, Mean ± S.E. ([3]; 5 mg/kg p.o., 2 hours): 62.9 ± 3.2% | Percent Inhibition of hind paw swelling ([3]; 5 mg/kg p.o., 2 hours): 16.8% | Hind Paw Swelling, Mean ± S.E. ([3]; 5 mg/kg p.o., 3 hours): 68.2 ± 2.7% | Percent Inhibition of hind paw swelling ([3]; 5 mg/kg p.o., 3 hours): 6.7% | number of positive rats ([3]; 5 mg/kg p.o.): 1 | Hind Paw Swelling, Mean ± S.E. ([3]; 10 mg/kg p.o., 2 hours): 60.5 ± 2.3% | Percent Inhibition of hind paw swelling ([3]; 10 mg/kg p.o., 2 hours): 19.8% | Hind Paw Swelling, Mean ± S.E. ([3]; 10 mg/kg p.o., 3 hours): 65.7 ± 2.0% | Percent Inhibition of hind paw swelling ([3]; 10 mg/kg p.o., 3 hours): 10.1% | number of positive rats ([3]; 10 mg/kg p.o.): 0 | Hind Paw Swelling, Mean ± S.E. ([3]; 20 mg/kg p.o., 2 hours): 50.7 ± 3.7% | Percent Inhibition of hind paw swelling ([3]; 20 mg/kg p.o., 2 hours): 33.6% | Hind Paw Swelling, Mean ± S.E. ([3]; 20 mg/kg p.o., 3 hours): 56.0 ± 4.1% | Percent Inhibition of hind paw swelling ([3]; 20 mg/kg p.o., 3 hours): 25.2% | number of positive rats ([3]; 20 mg/kg p.o.): 6 | Hind Paw Swelling, Mean ± S.E. ([3]; 40 mg/kg p.o., 2 hours): 46.8 ± 2.6% | Percent Inhibition of hind paw swelling ([3]; 40 mg/kg p.o., 2 hours): 38.7% | Hind Paw Swelling, Mean ± S.E. ([3]; 40 mg/kg p.o., 3 hours): 48.6 ± 3.1% | Percent Inhibition of hind paw swelling ([3]; 40 mg/kg p.o., 3 hours): 35.1% | number of positive rats ([3]; 40 mg/kg p.o.): 8 | Hind Paw Swelling, Mean ± S.E. ([3]; 80 mg/kg p.o., 2 hours): 49.8 ± 2.6% | Percent Inhibition of hind paw swelling ([3]; 80 mg/kg p.o., 2 hours): 31.3% | Hind Paw Swelling, Mean ± S.E. ([3]; 80 mg/kg p.o., 3 hours): 49.3± 2.8% | Percent Inhibition of hind paw swelling ([3]; 80 mg/kg p.o., 3 hours): 30.9% | number of positive rats ([3]; 80 mg/kg p.o.): 7 | ED50 [3]: 23.3 mg/kg

O=C(O)Cc1ccc(C=Cc2ccccc2)cc1 [4-stilbene-acetic acid]
anti-cholesterinemic activity [4]: anti-cholesterinemic activity

CC(C)Cc1ccc(CC(=O)O)cc1 [p-Isobutylphenylacetic acid, reference compound]
RASP (relative potency of inhibition of the test compound to aspirin) [1]: 0.5

CC(C)Cc1ccc(C(C)C(=O)O)cc1 (stereo not shown) [Ibuprofen, 2-(p-isobutylphenyl)propionic acid, reference compound]
RASP (relative potency of inhibition of the test compound to aspirin) [1]: 0.6 | Inhibition in (%) of writhing ([2]; 25 mg/kg p.o.): 25.5% | Number of Writhings/15 min., Mean ± S.E. ([2]; 25 mg/kg p.o.): 27.4 ± 3.3 | number of positive mice ([2]; 25 mg/kg p.o.): 2 | Inhibition in (%) of writhing ([2]; 50 mg/kg p.o.): 45.7% | Number of Writhings/15 min., Mean ± S.E. ([2]; 50 mg/kg p.o.): 20.0 ± 1.5 | number of positive mice ([2]; 50 mg/kg p.o.): 4 | Inhibition in (%) of writhing ([2]; 100 mg/kg p.o.): 64.4% | Number of Writhings/15 min., Mean ± S.E. ([2]; 100 mg/kg p.o.): 13.1 ± 1.9 | number of positive mice ([2]; 100 mg/kg p.o.): 8 | Inhibition in (%) of writhing ([2]; 200 mg/kg p.o.): 76.4% | Number of Writhings/15 min., Mean ± S.E. ([2]; 200 mg/kg p.o.): 8.7 ± 1.6 | number of positive mice ([2]; 200 mg/kg p.o.): 10 | Inhibition in (%) of writhing ([2]; 400 mg/kg p.o.): 94.8% | Number of Writhings/15 min., Mean ± S.E. ([2]; 400 mg/kg p.o.): 1.9 ± 0.8 | number of positive mice ([2]; 400 mg/kg p.o.): 10 | ED50 [2]: 50 mg/kg | Hind Paw Swelling, Mean ± S.E. ([3]; 10 mg/kg p.o., 2 hours): 57.4 ± 3.9% | Percent Inhibition of hind paw swelling ([3]; 10 mg/kg p.o., 2 hours): 13.6% | Hind Paw Swelling, Mean ± S.E. ([3]; 10 mg/kg p.o., 3 hours): 60.8 ± 4.7% | Percent Inhibition of hind paw swelling ([3]; 10 mg/kg p.o., 3 hours): 15.5% | number of positive rats ([3]; 10 mg/kg p.o.): 1 | Hind Paw Swelling, Mean ± S.E. ([3]; 20 mg/kg p.o., 2 hours): 52.6 ± 3.4% | Percent Inhibition of hind paw swelling ([3]; 20 mg/kg p.o., 2 hours): 20.9% | Hind Paw Swelling, Mean ± S.E. ([3]; 20 mg/kg p.o., 3 hours): 56.2 ± 2.7% | Percent Inhibition of hind paw swelling ([3]; 20 mg/kg p.o., 3 hours): 21.9% | number of positive rats ([3]; 20 mg/kg p.o.): 4 | Hind Paw Swelling, Mean ± S.E. ([3]; 40 mg/kg p.o., 2 hours): 47.5 ± 4.0% | Percent Inhibition of hind paw swelling ([3]; 40 mg/kg p.o., 2 hours): 28.6% | Hind Paw Swelling, Mean ± S.E. ([3]; 40 mg/kg p.o., 3 hours): 51.2 ± 4.0% | Percent Inhibition of hind paw swelling ([3]; 40 mg/kg p.o., 3 hours): 28.9% | number of positive rats ([3]; 40 mg/kg p.o.): 7 | Hind Paw Swelling, Mean ± S.E. ([3]; 80 mg/kg p.o., 2 hours): 41.8 ± 2.3% | Percent Inhibition of hind paw swelling ([3]; 80 mg/kg p.o., 2 hours): 37.2% | Hind Paw Swelling, Mean ± S.E. ([3]; 80 mg/kg p.o., 3 hours): 43.9 ± 2.4% | Percent Inhibition of hind paw swelling ([3]; 80 mg/kg p.o., 3 hours): 38.9% | number of positive rats ([3]; 80 mg/kg p.o.): 9 | ED50 [3]: 24.3 mg/kg

O=C(O)Cc1ccc(/C=C/c2cccs2)cc1 [Example 4, (E)-p-(β-2-Thienylvinyl)phenylacetic Acid]
RASP (relative potency of inhibition of the test compound to aspirin) [1]: 1.0
